Patent publication US11084800B2 (Achillion Pharmaceuticals, Inc., priority 2017, dated 2021)

Molecular target: Human Factor D (Homo sapiens (Human), UniProt P00746)
Assay: Human Factor D Assay
Assay type: biochemical
Conditions: Factor D inhibition, assay of Example 10; read-out: IC5 (Stars)
Method in brief: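 Serum-purified Factor D (80 nM final) preincubated 5 min at room temperature with compound in 50 mM Tris, 1 M NaCl, pH 7.5. Z-L-Lys-SBz and DTNB added at 100 μM each; A405 followed every 30 s for 30 min. IC50 from nonlinear regression of rates versus concentration.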

Human Factor D, sequence (P00746 26-253): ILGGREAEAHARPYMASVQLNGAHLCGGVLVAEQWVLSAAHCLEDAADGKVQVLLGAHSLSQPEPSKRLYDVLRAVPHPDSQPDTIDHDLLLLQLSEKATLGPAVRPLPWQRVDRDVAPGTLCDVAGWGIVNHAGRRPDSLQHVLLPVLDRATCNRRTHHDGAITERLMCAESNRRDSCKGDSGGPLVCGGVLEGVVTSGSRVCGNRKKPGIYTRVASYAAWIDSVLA

SMILES	IC50 [nM]
CC(=O)c1nn(CC(=O)N2[C@H](C(=O)Nc3nc(Br)ccc3C)C[C@@]3(c4cn(C(C)C)nn4)C[C@@H]23)c2ccc(-c3cnc(C)nc3)cc12 [Compound 309, (1R,3S,5S)-2-(2-(3-acetyl-5-(2-methylpyrimidin-5-yl)-1H-indazol-1-yl)acetyl)-N-(6-bromo-3-methylpyridin-2-yl)-5-(1-isopropyl-1H-1,2,3-triazol-4-yl)-2-azabicyclo[3.1.0]hexane-3-carboxamide]	< 1000
CC(=O)c1nn(CC(=O)N2[C@H](C(=O)Nc3nc(Br)ccc3C)C[C@@]3(Cn4cccn4)C[C@@H]23)c2ccc(-c3cnc(C)nc3)cc12 [Compound 310, (1R,3S,5R)-5-((1H-Pyrazol-1-yl)methyl)-2-(2-(3-acetyl-5-(2-methylpyrimidin-5-yl)-1H-indazol-1-yl)acetyl)-N-(6-bromo-3-methylpyridin-2-yl)-2-azabicyclo[3.1.0]hexane-3-carboxamide]	< 1000
CC(=O)c1nn(CC(=O)N2[C@H](C(=O)Nc3nc(Br)ccc3C)C[C@@]3(Cn4ccc(C(C)(C)C)n4)C[C@@H]23)c2ccc(-c3cnc(C)nc3)cc12 [Compound 311, (1R,3S,5R)-2-(2-(3-acetyl-5-(2-methylpyrimidin-5-yl)-1H-indazol-1-yl)acetyl)-N-(6-bromo-3-methylpyridin-2-yl)-5-((3-(tert-butyl)-1H-pyrazol-1-yl)methyl)-2-azabicyclo[3.1.0]hexane-3-carboxamide]	< 1000
CC(=O)c1nn(CC(=O)N2[C@H](C(=O)Nc3nc(Br)ccc3C)C[C@@]3(Cn4cncn4)C[C@@H]23)c2ccc(-c3cnc(C)nc3)cc12 [Compound 312, (1R,3S,5R)-5-((1H-1,2,4-triazol-1-yl)methyl)-2-(2-(3-acetyl-5-(2-methylpyrimidin-5-yl)-1H-indazol-1-yl)acetyl)-N-(6-bromo-3-methylpyridin-2-yl)-2-azabicyclo[3.1.0]hexane-3-carboxamide]	< 1000
CC(=O)c1nn(CC(=O)N2[C@H](C(=O)Nc3nc(Br)ccc3C)C[C@@]3(Cn4cncn4)C[C@@H]23)c2cnc(-c3cnc(C)nc3)cc12 [Compound 313, (1R,3S,5R)-5-((1H-1,2,4-triazol-1-yl)methyl)-2-(2-(3-acetyl-5-(2-methylpyrimidin-5-yl)-1H-pyrazolo[3,4-c]pyridin-1-yl)acetyl)-N-(6-bromo-3-methylpyridin-2-yl)-2-azabicyclo[3.1.0]hexane-3-carboxamide]	< 1000
CC(=O)c1nn(CC(=O)N2[C@H](C(=O)Nc3nc(Br)ccc3C)C[C@@]3(Cn4cnc(C)c4)C[C@@H]23)c2ccc(-c3cnc(C)nc3)cc12 [Compound 314, (1R,3S,5R)-2-(2-(3-Acetyl-5-(2-methylpyrimidin-5-yl)-1H-indazol-1-yl)acetyl)-N-(6-bromo-3-methylpyridin-2-yl)-5-((4-methyl-1H-imidazol-1-yl)methyl)-2-azabicyclo[3.1.0]hexane-3-carboxamide]	< 1000
CC(=O)c1nn(CC(=O)N2[C@@H](C(=O)Nc3nc(Br)ccc3C)C[C@@]3(Cn4cnc(C)c4)C[C@@H]23)c2ccc(-c3cnc(C)nc3)cc12 [Compound 315, (1R,3R,5R)-2-(2-(3-Acetyl-5-(2-methylpyrimidin-5-yl)-1H-indazol-1-yl)acetyl)-N-(6-bromo-3-methylpyridin-2-yl)-5-((4-methyl-1H-imidazol-1-yl)methyl)-2-azabicyclo[3.1.0]hexane-3-carboxamide]	1000 to 10000
CCc1cc(-c2cnc(C)nc2)cc2c(C(C)=O)nn(CC(=O)N3[C@H](C(=O)Nc4nc(Br)ccc4C)C[C@@]4(CN(C)C)C[C@@H]34)c12 [Compound 316, (1R,3S,5R)-2-(2-(3-acetyl-7-ethyl-5-(2-methylpyrimidin-5-yl)-1H-indazol-1-yl)acetyl)-N-(6-bromo-3-methylpyridin-2-yl)-5-((dimethylamino)methyl)-2-azabicyclo[3.1.0]hexane-3-carboxamide]	< 1000
CC(=O)c1nn(CC(=O)N2[C@H](C(=O)Nc3nc(Br)ccc3CN3CCC(C)(F)CC3)C[C@@]3(C)C[C@@H]23)c2ccc(-c3cnc(C)nc3)cc12 [Compound 322, (1R,3S,5R)-2-(2-(3-acetyl-5-(2-methylpyrimidin-5-yl)-1H-indazol-1-yl)acetyl)-N-(6-bromo-3-((4-fluoro-4-methylpiperidin-1-yl)methyl)pyridin-2-yl)-5-methyl-2-azabicyclo[3.1.0]hexane-3-carboxamide]	< 1000
CC(=O)c1nn(CC(=O)N2[C@H](C(=O)Nc3nc(Br)ccc3C)C[C@@]3(CN(C)C)C[C@@H]23)c2c(C(F)CF)cc(-c3cnc(C)nc3)cc12 (stereo partly drawn) [Compound 325, (1R,3S,5R)-2-(2-(3-acetyl-7-(1,2-difluoroethyl)-5-(2-methylpyrimidin-5-yl)-1H-indazol-1-yl)acetyl)-N-(6-bromo-3-methylpyridin-2-yl)-5-((dimethylamino)methyl)-2-azabicyclo[3.1.0]hexane-3-carboxamide]	< 1000
CC(=O)c1nn(CC(=O)N2[C@H](C(=O)Nc3nc(Br)ccc3C)C[C@@]3(CCC(F)F)C[C@@H]23)c2cnc(-c3cnc(C)nc3)cc12 [Compound 327]	< 1000
CC(=O)c1nn(CC(=O)N2[C@H](C(=O)Nc3nc(Br)ccc3C)C[C@@]3(C)C[C@@H]23)c2ccc(-c3cnc(C)nc3C)cc12 [Compound 331, (1R,3S,5R)-2-(2-(3-acetyl-5-(2,4-dimethylpyrimidin-5-yl)-1H-indazol-1-yl)acetyl)-N-(6-bromo-3-methylpyridin-2-yl)-5-methyl-2-azabicyclo[3.1.0]hexane-3-carboxamide]	< 1000
CC(=O)c1nn(CC(=O)N2[C@H](C(=O)Nc3nc(Br)ccc3C)C[C@@]3(c4cc(C(C)C)no4)C[C@@H]23)c2ccc(-c3cnc(C)nc3)cc12 [Compound 333, (1R,3S,5S)-2-(2-(3-acetyl-5-(2-methylpyrimidin-5-yl)-1H-indazol-1-yl)acetyl)-N-(6-bromo-3-methylpyridin-2-yl)-5-(3-isopropylisoxazol-5-yl)-2-azabicyclo[3.1.0]hexane-3-carboxamide]	< 1000
CC(=O)c1nn(CC(=O)N2[C@H](C(=O)Nc3nc(Br)ccc3C)C[C@@]3(Cc4nc(C(C)(C)C)cs4)C[C@@H]23)c2ccc(-c3cnc(C)nc3)cc12 [Compound 338, (1R,3S,5R)-2-{2-[3-Acetyl-5-(2-methylpyrimidin-5-yl)indazol-1-yl]acetyl}-N-(6-bromo-3-methylpyridin-2-yl)-5-[(4-tert-butyl-1,3-thiazol-2-yl)methyl]-2-azabicyclo[3.1.0]hexane-3-carboxamide]	< 1000
CCc1csc(C[C@@]23C[C@@H](C(=O)Nc4nc(Br)ccc4C)N(C(=O)Cn4nc(C(C)=O)c5cc(-c6cnc(C)nc6)ccc54)[C@@H]2C3)n1 [Compound 339, (1R,3S,5R)-2-(2-(3-acetyl-5-(2-methylpyrimidin-5-yl)-1H-indazol-1-yl)acetyl)-N-(6-bromo-3-methylpyridin-2-yl)-5-((4-ethylthiazol-2-yl)methyl)-2-azabicyclo[3.1.0]hexane-3-carboxamide]	< 1000
CC(=O)c1nn(CC(=O)N2[C@H](C(=O)Nc3nc(Br)ccc3C)C[C@@]3(CNCCCF)C[C@@H]23)c2c(C)cc(-c3cnc(C)nc3)cc12 [Compound 342, (1R,3S,5R)-2-(2-(3-acetyl-7-methyl-5-(2-methylpyrimidin-5-yl)-1H-indazol-1-yl)acetyl)-N-(6-bromo-3-methylpyridin-2-yl)-5-(((3-fluoropropyl)amino)methyl)-2-azabicyclo[3.1.0]hexane-3-carboxamide]	< 1000
CC(=O)c1nn(CC(=O)N2[C@H](C(=O)Nc3nc(Br)ccc3C)C[C@@]3(CN4CC5(CCC5)C4)C[C@@H]23)c2c(C)nc(-c3cnc(C)nc3)cc12 [Compound 344, (1R,3S,5R)-5-(2-azaspiro[3.3]heptan-2-ylmethyl)-2-(2-(3-acetyl-7-methyl-5-(2-methylpyrimidin-5-yl)-1H-pyrazolo[3,4-c]pyridin-1-yl)acetyl)-N-(6-bromo-3-methylpyridin-2-yl)-2-azabicyclo[3.1.0]hexane-3-carboxamide]	< 1000

Same assay, conditions: Table 8; Factor D 80 nM, substrate Z-L-Lys-SBz; read-out: IC50

SMILES	IC50 [nM]
CC(=O)c1nn(CC(=O)N2[C@H](C(=O)Nc3nc(Br)ccc3C)C[C@@]3(CN(C)C)C[C@@H]23)c2c(C3CC3)cc(-c3cnc(C)nc3)cc12 [Compound 317, (1R,3S,5R)-2-(2-(3-acetyl-7-cyclopropyl-5-(2-methylpyrimidin-5-yl)-1H-indazol-1-yl)acetyl)-N-(6-bromo-3-methylpyridin-2-yl)-5-((dimethylamino)methyl)-2-azabicyclo[3.1.0]hexane-3-carboxamide]	< 1000
CC(=O)c1nn(CC(=O)N2[C@H](C(=O)Nc3nc(Br)ccc3C)C[C@@]3(CN(C)C)C[C@@H]23)c2c(C(F)(F)F)cc(-c3cnc(C)nc3)cc12 [Compound 318, (1R,3S,5R)-2-(2-(3-acetyl-5-(2-methylpyrimidin-5-yl)-7-(trifluoromethyl)-1H-indazol-1-yl)acetyl)-N-(6-bromo-3-methylpyridin-2-yl)-5-((dimethylamino)methyl)-2-azabicyclo[3.1.0]hexane-3-carboxamide]	< 1000
COC(=O)CCCCCCCCCCCCCCCCC(=O)N[C@@H](CCC(=O)NCCOCCOCC(=O)NCCOCCOCC(=O)NCc1ncc(-c2ccc3c(c2)c(C(C)=O)nn3CC(=O)N2[C@H](C(=O)Nc3nc(Br)ccc3C)C[C@@]3(C)C[C@@H]23)cn1)C(=O)OC [Compound 329]	< 1000
C=CCCCCCCc1cc(-c2cnc(C)nc2)cc2c(C(C)=O)nn(CC(=O)N3[C@H](C(=O)Nc4nc(Br)ccc4CC=C)C[C@@]4(C)C[C@@H]34)c12 [Compound 343, (1R,3S,5R)-2-(2-(3-acetyl-5-(2-methylpyrimidin-5-yl)-7-(oct-7-en-l-yl)-1H-indazol-1-yl)acetyl)-N-(3-allyl-6-bromopyridin-2-yl)-5-methyl-2-azabicyclo[3.1.0]hexane-3-carboxamide]	< 1000
